Reference: ChEMBL document CHEMBL1201862, “PubChem BioAssay data set” (2004)
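Cultured in 96-well plates, cells were exposed to test compound for 48 hours across five concentrations. Abbreviation: GI50, concentration required for 50% inhibition of growth.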 Active and inactive are the calls of the source. Cut-off read from the data, not from the text of the source: active = GI50 up to about 1.1 µM and inactive = higher.

Legend:
Assay in all cases: NCI tumour cell line growth inhibition, 48 h
Hs-578T = tested on: Hs-578T
SNB-19 = tested on: SNB-19
NCI-H226 = tested on: NCI-H226
SF-539 = tested on: SF-539
TK-10 = tested on: TK-10
SN12C = tested on: SN12C
NCI-H23 = tested on: NCI-H23
MDA-N = tested on: MDA-N
SNB-75 = tested on: SNB-75
NCI/ADR-RES = tested on: NCI/ADR-RES
T47D = tested on: T47D
LOX IMVI = tested on: LOX IMVI
HT-29 = tested on: HT-29
SF-268 = tested on: SF-268
CAKI-1 = tested on: CAKI-1
786-0 = tested on: 786-0
SK-MEL-5 = tested on: SK-MEL-5
KM12 = tested on: KM12
A498 = tested on: A498
MCF7 = tested on: MCF7
SF-295 = tested on: SF-295
Malme-3M = tested on: Malme-3M
HOP-92 = tested on: HOP-92
A549 = tested on: A549
OVCAR-8 = tested on: OVCAR-8
UACC-257 = tested on: UACC-257
OVCAR-5 = tested on: OVCAR-5
SK-OV-3 = tested on: SK-OV-3
MOLT-4 = tested on: MOLT-4
CCRF-CEM = tested on: CCRF-CEM
OVCAR-3 = tested on: OVCAR-3
M14 = tested on: M14
IGROV-1 = tested on: IGROV-1
HCT-116 = tested on: HCT-116
HCT-15 = tested on: HCT-15
COLO 205 = tested on: COLO 205
RXF 393 = tested on: RXF 393
NCI-H460 = tested on: NCI-H460
ACHN = tested on: ACHN
OVCAR-4 = tested on: OVCAR-4
HL-60 = tested on: HL-60
SK-MEL-2 = tested on: SK-MEL-2
HCC 2998 = tested on: HCC 2998
PC-3 = tested on: PC-3
EKVX = tested on: EKVX
MDA-MB-435 = tested on: MDA-MB-435
UACC-62 = tested on: UACC-62
MDA-MB-231 = tested on: MDA-MB-231
SK-MEL-28 = tested on: SK-MEL-28
DU-145 = tested on: DU-145
HOP-62 = tested on: HOP-62
SW-620 = tested on: SW-620

`O=C1NN(Cc2ccccc2)C(=O)N2CCC[C@@H]12` was tested, and the GI50 (Hs-578T) was > 100 µM (inactive), the GI50 (SNB-19) was > 100 µM (inactive) and the GI50 (NCI-H226) was 0.0505 µM (active). For the same molecule, the GI50 (SF-539) was > 100 µM (inactive), the GI50 (TK-10) was > 100 µM (inactive) and the GI50 (SN12C) was > 100 µM (inactive). For the same molecule, the GI50 (NCI-H23) was > 100 µM (inactive), the GI50 (MDA-N) was > 100 µM (inactive) and the GI50 (SNB-75) was 0.0179 µM (active). The GI50 (NCI/ADR-RES) was > 100 µM (inactive), the GI50 (T47D) was > 100 µM (inactive) and the GI50 (LOX IMVI) was > 100 µM (inactive). For the same molecule, the GI50 (HT-29) was > 100 µM (inactive), the GI50 (SF-268) was > 100 µM (inactive) and the GI50 (CAKI-1) was > 100 µM (inactive). The GI50 (786-0) was > 100 µM (inactive), the GI50 (SK-MEL-5) was > 100 µM (inactive) and the GI50 (KM12) was > 100 µM (inactive). For the same molecule, the GI50 (A498) was > 100 µM (inactive), the GI50 (MCF7) was > 100 µM (inactive) and the GI50 (SF-295) was > 100 µM (inactive). The GI50 (Malme-3M) was > 100 µM (inactive), the GI50 (HOP-92) was > 100 µM (inactive) and the GI50 (A549) was > 100 µM (inactive). The GI50 (OVCAR-8) was > 100 µM (inactive), the GI50 (UACC-257) was > 100 µM (inactive) and the GI50 (OVCAR-5) was > 100 µM (inactive). For the same molecule, the GI50 (SK-OV-3) was > 100 µM (inactive), the GI50 (MOLT-4) was > 100 µM (inactive) and the GI50 (CCRF-CEM) was > 100 µM (inactive). The GI50 (OVCAR-3) was > 100 µM (inactive), the GI50 (M14) was > 100 µM (inactive) and the GI50 (IGROV-1) was > 100 µM (inactive). The GI50 (HCT-116) was > 100 µM (inactive), the GI50 (HCT-15) was > 100 µM and the GI50 (COLO 205) was > 100 µM (inactive). For the same molecule, the GI50 (RXF 393) was > 100 µM (inactive), the GI50 (NCI-H460) was > 100 µM (inactive) and the GI50 (ACHN) was > 100 µM (inactive). The GI50 (OVCAR-4) was > 100 µM (inactive), the GI50 (HL-60) was > 100 µM (inactive) and the GI50 (SK-MEL-2) was > 100 µM (inactive). The GI50 (HCC 2998) was > 100 µM (inactive), the GI50 (PC-3) was > 100 µM (inactive) and the GI50 (EKVX) was > 100 µM (inactive). For the same molecule, the GI50 (MDA-MB-435) was > 100 µM (inactive), the GI50 (UACC-62) was > 100 µM (inactive) and the GI50 (MDA-MB-231) was > 100 µM (inactive). For the same molecule, the GI50 (SK-MEL-28) was > 100 µM (inactive), the GI50 (DU-145) was > 100 µM (inactive) and the GI50 (HOP-62) was > 100 µM (inactive). For the same molecule, the GI50 (SW-620) was > 100 µM (inactive).
